From US11884671B2, “Purinone compounds and their use in treating cancer” (ASTRAZENECA AB, priority 2018, dated 2024) come the findings set out here.

One assay has as its target AURKA (Aurora A) (Homo sapiens (Human), UniProt O14965). Briefly: Aurora-A enzyme assay (Z'-LYTE). Type of assay: biochemical. The conditions noted are these: 10 μM ATP, arithmetic mean of two or more experiments; for IC50: read-out: AurA enz pIC50 (converted). The protocol:
(§1) The inhibitory activity of compounds against AURKA, AURKB, JAK1, JAK2 and JAK3 was determined in Z′-LYTE® assays run by ThermoFisher Scientific as part of their SelectScreen® Biochemical Kinase Profiling Service. The Z′-LYTE® biochemical assay format employs a fluorescence-based, coupled-enzyme format and is based on the differential sensitivity of phosphorylated and non-phosphorylated peptides to proteolytic cleavage. The peptide substrate is labeled with two fluorophores—one at each end—that make up a FRET pair. In the primary reaction, the kinase transfers the gamma-phosphate of ATP to a single tyrosine, serine or threonine residue in a synthetic FRET-peptide. In the secondary reaction, a site-specific protease recognises and cleaves non-phosphorylated FRET-peptides. Phosphorylation of FRET-peptides suppresses cleavage by the Development Reagent. Cleavage disrupts FRET between the donor (i.e., coumarin) and acceptor (i.e., fluorescein) fluorophores on the FRET-peptide, whereas uncleaved, phosphorylated FRET-peptides maintain FRET. A ratiometric method, which calculates the ratio (the Emission Ratio) of donor emission to acceptor emission after excitation of the donor fluorophore at 400 nm, is used to quantitate reaction progress. Both cleaved and uncleaved FRET-peptides contribute to the fluorescence signals and therefore to the Emission Ratio. The extent of phosphorylation of the FRET-peptide can be calculated from the Emission Ratio.
(§2) 10 point three-fold dilution compound concentration-response curves, with a top concentration of 10 μM were generated from 10 mM stocks of compound solubilised in DMSO. All assays were performed in black, non-binding, low volume Corning 384-well plates (cat. #4514, Corning), in a total reaction volume of 10 μL and 1% (v/v) final DMSO concentration. […] The kinase reaction was then quenched by the addition of 5 μL of Development Reagent (ThermoFisher Scientific proprietary). […] IC50 values were calculated using XLfit software (IDBS Ltd, Surrey, UK), with the curve fit to model number 205 (sigmoidal dose-response model).
Aurora A (AurA): The 2×AURKA (Aurora A)/Ser/Thr 01 (ThermoFisher Scientific proprietary) mixture was prepared in 50 mM HEPES pH 7.5, 0.01% BRIJ-35, 10 mM MgCl2, 1 mM EGTA. […] After the 1 hour Kinase Reaction incubation, 5 μL of a 1:4096 dilution of Development Reagent was added.

A further assay concerns the target JAK1 (Homo sapiens (Human), UniProt P23458). Briefly: JAK1 enzyme assay (Z'-LYTE). Type of assay: biochemical. The conditions noted are these: 75 μM ATP, arithmetic mean of two or more experiments; for IC50: read-out: JAK1 enz pIC50 (converted). The method, then: as §1, §2
JAK1: The 2×JAK/Tyr 06 (ThermoFisher Scientific proprietary) mixture was prepared in 50 mM HEPES pH 6.5, 0.01% BRIJ-35, 10 mM MgCl2, 1 mM EGTA, 0.02% NaN3. […] After the 1 hour Kinase Reaction incubation, 5 μL of a 1:128 dilution of Development Reagent was added.

A further assay deals with TTK (Homo sapiens (Human), UniProt P33981). Put plainly: TTK enzyme assay (LanthaScreen Eu Kinase Binding). The conditions noted are these: arithmetic mean of two or more experiments; for IC50: read-out: TTK enz pIC50 (converted). The protocol: The inhibitory activity of compounds against TTK was determined in a LanthaScreen® Eu Kinase Binding assay run by ThermoFisher Scientific as part of their SelectScreen® Biochemical Kinase Profiling Service. The LanthaScreen® Eu Kinase Binding assay format uses binding of an Alexa Fluor® conjugate or “tracer” to a kinase, which is detected by addition of a Eu-labeled anti-tag antibody. […] The degree of FRET measured in the assay is used to determine the binding of a compound.
10 point three-fold dilution compound concentration-response curves, with a top concentration of 10 μM were generated from 10 mM stocks of compound solubilised in DMSO. All assays were performed in white, low volume Greiner 384-well plates (cat. #784207, Greiner), in a total reaction volume of 16 μL and 1% (v/v) final DMSO concentration. […] Plates were then read using a fluorescence plate reader. IC50 values were calculated using XLfit software (IDBS Ltd, Surrey, UK), with the curve fit to model number 205 (sigmoidal dose-response model).

Bounds are passed on as bounds.

Sequence of AURKA (Aurora A) (O14965 whole entry): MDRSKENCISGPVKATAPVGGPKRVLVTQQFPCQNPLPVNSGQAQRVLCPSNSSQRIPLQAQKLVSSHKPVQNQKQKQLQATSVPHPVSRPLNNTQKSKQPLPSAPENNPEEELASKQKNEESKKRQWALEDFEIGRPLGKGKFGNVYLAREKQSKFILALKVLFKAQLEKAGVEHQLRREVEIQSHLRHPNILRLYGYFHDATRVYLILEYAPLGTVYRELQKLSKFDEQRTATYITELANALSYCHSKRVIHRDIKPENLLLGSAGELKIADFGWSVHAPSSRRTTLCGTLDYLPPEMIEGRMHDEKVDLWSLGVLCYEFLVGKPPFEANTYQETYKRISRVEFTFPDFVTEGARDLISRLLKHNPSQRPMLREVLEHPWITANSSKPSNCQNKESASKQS
Sequence of JAK1 (P23458 whole entry): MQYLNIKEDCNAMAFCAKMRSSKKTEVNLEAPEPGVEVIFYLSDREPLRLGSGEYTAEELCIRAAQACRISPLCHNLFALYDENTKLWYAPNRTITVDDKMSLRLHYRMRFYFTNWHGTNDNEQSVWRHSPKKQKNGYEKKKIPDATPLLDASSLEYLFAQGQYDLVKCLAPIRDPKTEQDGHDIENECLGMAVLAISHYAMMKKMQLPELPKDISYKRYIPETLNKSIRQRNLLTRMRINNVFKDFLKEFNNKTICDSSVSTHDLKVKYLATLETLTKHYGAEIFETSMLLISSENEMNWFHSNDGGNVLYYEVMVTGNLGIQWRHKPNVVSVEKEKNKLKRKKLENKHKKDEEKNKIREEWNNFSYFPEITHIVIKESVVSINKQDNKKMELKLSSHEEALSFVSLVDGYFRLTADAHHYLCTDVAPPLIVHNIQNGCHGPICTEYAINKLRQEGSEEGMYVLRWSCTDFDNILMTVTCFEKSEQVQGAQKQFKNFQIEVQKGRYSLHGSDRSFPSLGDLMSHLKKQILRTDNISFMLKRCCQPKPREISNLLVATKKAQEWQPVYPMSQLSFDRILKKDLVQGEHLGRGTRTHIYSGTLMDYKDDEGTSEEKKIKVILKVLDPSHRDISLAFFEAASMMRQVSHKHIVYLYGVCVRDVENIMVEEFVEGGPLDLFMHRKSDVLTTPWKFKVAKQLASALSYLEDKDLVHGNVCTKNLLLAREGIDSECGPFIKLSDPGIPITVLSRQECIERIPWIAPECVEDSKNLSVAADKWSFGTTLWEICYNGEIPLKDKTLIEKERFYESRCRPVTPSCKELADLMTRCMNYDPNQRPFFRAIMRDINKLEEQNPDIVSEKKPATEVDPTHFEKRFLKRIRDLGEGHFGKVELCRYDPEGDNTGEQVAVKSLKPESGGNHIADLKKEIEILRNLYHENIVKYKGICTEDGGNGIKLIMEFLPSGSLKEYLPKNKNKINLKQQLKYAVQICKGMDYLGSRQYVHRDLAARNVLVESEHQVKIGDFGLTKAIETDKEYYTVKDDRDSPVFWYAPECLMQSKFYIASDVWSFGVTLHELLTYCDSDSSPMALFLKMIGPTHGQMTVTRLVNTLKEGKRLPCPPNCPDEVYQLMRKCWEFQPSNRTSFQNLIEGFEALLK
Sequence of TTK (P33981 whole entry): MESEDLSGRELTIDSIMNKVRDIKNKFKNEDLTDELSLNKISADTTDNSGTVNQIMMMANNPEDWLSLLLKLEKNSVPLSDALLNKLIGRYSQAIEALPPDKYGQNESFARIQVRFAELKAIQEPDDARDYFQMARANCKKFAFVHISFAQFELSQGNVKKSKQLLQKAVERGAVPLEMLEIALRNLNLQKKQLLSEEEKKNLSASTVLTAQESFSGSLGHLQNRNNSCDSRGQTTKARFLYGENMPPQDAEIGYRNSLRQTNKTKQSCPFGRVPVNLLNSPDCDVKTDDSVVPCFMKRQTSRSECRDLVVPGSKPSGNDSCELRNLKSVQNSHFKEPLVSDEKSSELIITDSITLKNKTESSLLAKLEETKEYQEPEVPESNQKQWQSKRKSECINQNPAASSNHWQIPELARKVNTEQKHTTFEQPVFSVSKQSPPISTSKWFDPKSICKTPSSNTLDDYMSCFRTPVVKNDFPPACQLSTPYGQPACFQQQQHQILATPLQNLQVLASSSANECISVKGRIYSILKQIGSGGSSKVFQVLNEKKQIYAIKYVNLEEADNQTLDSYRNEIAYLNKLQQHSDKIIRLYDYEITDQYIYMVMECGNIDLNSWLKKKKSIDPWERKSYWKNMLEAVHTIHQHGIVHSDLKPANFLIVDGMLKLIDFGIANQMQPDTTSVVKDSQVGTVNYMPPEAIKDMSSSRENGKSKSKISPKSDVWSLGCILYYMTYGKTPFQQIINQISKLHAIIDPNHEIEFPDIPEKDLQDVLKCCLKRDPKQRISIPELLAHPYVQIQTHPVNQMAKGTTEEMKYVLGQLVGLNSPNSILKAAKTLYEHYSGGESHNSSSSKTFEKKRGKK

`Cc1cc2ncccc2cc1Nc1ncc2c(n1)n([C@H]1CC[C@@H](O)CC1)c(=O)n2C` [Example 11, 9-((1s,4s)-4-hydroxycyclohexyl)-7-methyl-2-((7-methylquinolin-6-yl)amino)-7,9-dihydro-8H-purin-8-one]: the IC50 at AURKA (Aurora A) is over 10 µM; on JAK1, over 10 µM; on TTK, 0.398 µM.

As to `Cc1cc2nnccc2cc1Nc1ncc2c(n1)n([C@H]1CC[C@@H](O)CC1)c(=O)n2C` [Example 12, 9-((1s,4s)-4-hydroxycyclohexyl)-7-methyl-2-((7-methylcinnolin-6-yl)amino)-7,9-dihydro-8H-purin-8-one], the “AurA enz pIC50” value at AURKA (Aurora A) was under 5. Also, on JAK1, the “JAK1 enz pIC50” value was under 5. In addition, the “TTK enz pIC50” value at TTK is given as 6.3.

For `Cc1cc2nccnc2cc1Nc1ncc2c(n1)n([C@H]1CC[C@@H](O)CC1)c(=O)n2C` [Example 13, 9-((1s,4s)-4-hydroxycyclohexyl)-7-methyl-2-((7-methylquinoxalin-6-yl)amino)-7,9-dihydro-8H-purin-8-one], the IC50 at AURKA (Aurora A) was over 10 µM; at JAK1 it was over 10 µM; at TTK, 0.316 µM.

`Cc1cc2nccnc2cc1Nc1ncc2c(n1)n([C@H]1CC[C@](C)(O)CC1)c(=O)n2C` [Example 18, 9-((1r,4r)-4-hydroxy-4-methylcyclohexyl)-7-methyl-2-((7-methylquinoxalin-6-yl)amino)-7,9-dihydro-8H-purin-8-one]: the IC50 on AURKA (Aurora A) was over 10 µM; at JAK1, over 10 µM; at TTK, 1.58 µM.

For the molecule `Cc1cc2nccnc2cc1Nc1ncc2c(n1)n([C@H]1CC[C@@](C)(O)CC1)c(=O)n2C` [Example 19, 9-((1s,4s)-4-hydroxy-4-methylcyclohexyl)-7-methyl-2-((7-methylquinoxalin-6-yl)amino)-7,9-dihydro-8H-purin-8-one], the IC50 at AURKA (Aurora A) is over 10 µM; on JAK1, over 10 µM; at TTK, 0.2 µM.

For the molecule `Cc1cc2nccnc2cc1Nc1ncc2c(n1)n([C@]1(C)CC[C@H](O)CC1)c(=O)n2C` [Example 20, 9-((1s,4s)-4-hydroxy-1-methylcyclohexyl)-7-methyl-2-((7-methylquinoxalin-6-yl)amino)-7,9-dihydro-8H-purin-8-one], the “AurA enz pIC50” value at AURKA (Aurora A) is under 5. Besides, on JAK1, the “JAK1 enz pIC50” value was under 5. The “TTK enz pIC50” value on TTK is given as 6.4.

With `Cc1cc2nnccc2cc1Nc1ncc2c(n1)n([C@H]1CCOC1)c(=O)n2C` [Example 21, (S)-7-methyl-2-((7-methylcinnolin-6-yl)amino)-9-(tetrahydrofuran-3-yl)-7,9-dihydro-8H-purin-8-one], the “AurA enz pIC50” value at AURKA (Aurora A) was under 5. For the same molecule, the “JAK1 enz pIC50” value at JAK1 is under 5. On TTK, the “TTK enz pIC50” value is 6.4.

For the molecule `Cc1cc2nccnc2cc1Nc1ncc2c(n1)n([C@H]1CCOC1)c(=O)n2C` [Example 22, (S)-7-methyl-2-((7-methylquinoxalin-6-yl)amino)-9-(tetrahydrofuran-3-yl)-7,9-dihydro-8H-purin-8-one], the “AurA enz pIC50” value at AURKA (Aurora A) was under 5. Moreover, the “JAK1 enz pIC50” value on JAK1 is recorded as under 5. Further, the “TTK enz pIC50” value at TTK came to 5.5.

As for `Cc1cc2nnccc2cc1Nc1ncc2c(n1)n([C@@H]1CCOC1)c(=O)n2C` [Example 23, (R)-7-methyl-2-((7-methylcinnolin-6-yl)amino)-9-(tetrahydrofuran-3-yl)-7,9-dihydro-8H-purin-8-one], the “AurA enz pIC50” value on AURKA (Aurora A) is given as under 5. Besides, the “JAK1 enz pIC50” value on JAK1 is recorded as under 5. Moreover, the “TTK enz pIC50” value at TTK was 5.9.

With `Cc1cc2nccnc2cc1Nc1ncc2c(n1)n([C@@H]1CCOC1)c(=O)n2C` [Example 24, (R)-7-methyl-2-((7-methylquinoxalin-6-yl)amino)-9-(tetrahydrofuran-3-yl)-7,9-dihydro-8H-purin-8-one], on AURKA (Aurora A), the “AurA enz pIC50” value is under 5. Also, the “JAK1 enz pIC50” value at JAK1 is under 5. Also, on TTK, the “TTK enz pIC50” value is 5.6.

`Cc1cc2nnccc2cc1Nc1ncc2c(n1)n([C@@H]1CCCOC1)c(=O)n2C` [Example 25, (R)-7-methyl-2-((7-methylcinnolin-6-yl)amino)-9-(tetrahydro-2H-pyran-3-yl)-7,9-dihydro-8H-purin-8-one]: the “AurA enz pIC50” value at AURKA (Aurora A) is listed as under 5. Moreover, on JAK1, the “JAK1 enz pIC50” value is recorded as under 5. Further, the “TTK enz pIC50” value at TTK amounted to 6.2.

Take `Cc1cc2nccnc2cc1Nc1ncc2c(n1)n([C@@H]1CCCOC1)c(=O)n2C` [Example 26, (R)-7-methyl-2-((7-methylquinoxalin-6-yl)amino)-9-(tetrahydro-2H-pyran-3-yl)-7,9-dihydro-8H-purin-8-one]: the “AurA enz pIC50” value on AURKA (Aurora A) is listed as under 5. In addition, on JAK1, the “JAK1 enz pIC50” value was under 5. For the same molecule, the “TTK enz pIC50” value on TTK is reported as 5.8.

Regarding `Cc1cc2nnccc2cc1Nc1ncc2c(n1)n([C@H]1CCCOC1)c(=O)n2C` [Example 27, (S)-7-methyl-2-((7-methylcinnolin-6-yl)amino)-9-(tetrahydro-2H-pyran-3-yl)-7,9-dihydro-8H-purin-8-one], the “AurA enz pIC50” value at AURKA (Aurora A) was under 5. Moreover, the “JAK1 enz pIC50” value at JAK1 was under 5. At TTK, the “TTK enz pIC50” value was found to be 6.4.

Regarding `Cc1cc2nccnc2cc1Nc1ncc2c(n1)n([C@H]1CCCOC1)c(=O)n2C` [Example 28, (S)-7-methyl-2-((7-methylquinoxalin-6-yl)amino)-9-(tetrahydro-2H-pyran-3-yl)-7,9-dihydro-8H-purin-8-one], the “AurA enz pIC50” value on AURKA (Aurora A) came out at 5.3. Also, the “JAK1 enz pIC50” value on JAK1 was under 5. The “TTK enz pIC50” value at TTK worked out at 6.1.

In the case of `Cc1cnc2cc(Nc3ncc4c(n3)n(C3CCOCC3)c(=O)n4C)c(C)cc2n1` [Example 33, 2-((2,7-dimethylquinoxalin-6-yl)amino)-7-methyl-9-(tetrahydro-2H-pyran-4-yl)-7,9-dihydro-8H-purin-8-one], the IC50 at AURKA (Aurora A) was over 10 µM; on JAK1, over 10 µM; at TTK it was 1.26 µM.

Turning to `Cc1cnc2cc(C)c(Nc3ncc4c(n3)n(C3CCOCC3)c(=O)n4C)cc2n1` [Example 34, 2-((3,7-dimethylquinoxalin-6-yl)amino)-7-methyl-9-(tetrahydro-2H-pyran-4-yl)-7,9-dihydro-8H-purin-8-one], the values for the IC50 at AURKA (Aurora A), at JAK1 and at TTK were over 10 µM, over 10 µM and 5.01 µM, respectively.

As for `Cc1cc2ncccc2cc1Nc1ncc2c(n1)n(C1CCS(=O)(=O)CC1)c(=O)n2C` [Example 35, 9-(1,1-dioxidotetrahydro-2H-thiopyran-4-yl)-7-methyl-2-((7-methylquinolin-6-yl)amino)-7,9-dihydro-8H-purin-8-one], the “AurA enz pIC50” value at AURKA (Aurora A) was under 5. Moreover, at JAK1, the “JAK1 enz pIC50” value is under 5. Besides, the “TTK enz pIC50” value at TTK was determined as 5.9.

Regarding `Cc1cc2ncccc2cc1Nc1ncc2c(n1)n(C1COC1)c(=O)n2C` [Example 36, 7-methyl-2-((7-methylquinolin-6-yl)amino)-9-(oxetan-3-yl)-7,9-dihydro-8H-purin-8-one], the “AurA enz pIC50” value on AURKA (Aurora A) is given as under 5. For the same molecule, the “JAK1 enz pIC50” value on JAK1 was under 5. Besides, the “TTK enz pIC50” value at TTK was found to be 6.0.

Take `Cc1cc2ncccc2cc1Nc1ncc2c(n1)n([C@@H]1CCNC[C@@H]1F)c(=O)n2C` [Example 38, 9-((3S,4R)-3-fluoropiperidin-4-yl)-7-methyl-2-((7-methylquinolin-6-yl)amino)-7,9-dihydro-8H-purin-8-one]: the “AurA enz pIC50” value at AURKA (Aurora A) was under 5. At JAK1, the “JAK1 enz pIC50” value is given as under 5. In addition, the “TTK enz pIC50” value on TTK is recorded as under 5.1.
